Experimental data published in patent US20200247812A1 (Integral Biosciences Private Limited, priority 2018, published 2020).

Legend:
ALK 5 = target: T1, ALK 5 (Homo sapiens, UniProt P36897); experiment: In vitro kinase assay (ALK5 IC50, LanthaScreen Terbium labeled TR-FRET); format: biochemical; settings: TGF-β kinase 6 nM, ATP 10 μM, read-out: Enzyme Activity ALK 5 IC50
T1 sequence (P36897 34-503): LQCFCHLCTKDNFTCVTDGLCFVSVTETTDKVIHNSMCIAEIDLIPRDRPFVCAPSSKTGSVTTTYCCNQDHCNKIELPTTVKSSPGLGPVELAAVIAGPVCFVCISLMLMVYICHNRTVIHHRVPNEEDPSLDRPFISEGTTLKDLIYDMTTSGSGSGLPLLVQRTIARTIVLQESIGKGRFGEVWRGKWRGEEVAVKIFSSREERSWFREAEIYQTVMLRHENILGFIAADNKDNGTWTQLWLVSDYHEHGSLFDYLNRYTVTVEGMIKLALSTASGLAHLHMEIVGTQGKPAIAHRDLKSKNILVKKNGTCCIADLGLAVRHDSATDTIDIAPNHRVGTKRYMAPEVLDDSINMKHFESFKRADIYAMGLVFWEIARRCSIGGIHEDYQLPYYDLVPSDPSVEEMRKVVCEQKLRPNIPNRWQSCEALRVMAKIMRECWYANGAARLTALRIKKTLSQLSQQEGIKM
Method in brief: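 LanthaScreen Tb TR-FRET: ALK5 (6 nM) preincubated 10 min with 3-fold diluted compounds, then 10 μM ATP and 200 nM fluorescent PolyGT substrate added for 1 h at room temperature. Stopped with EDTA/Tb antibody; 520/495 nm emission read. IC50 from four-parameter fit versus DMSO and no-enzyme controls.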

[1] = system: mIFN-γ release by activated mouse splenocytes; experiment: Mouse splenocyte assay: reversal of TGF-β suppressed, CD3e/CD28 induced mIFN-γ release (ELISA); format: cell-based; settings: Balb/c splenocytes, anti-CD3e/CD28, mouse TGF-β 10 ng/ml, 72 hr, read-out: Inhibition of mIFN-γ release by activated Mouse Splenocyte, IC50
Procedure: IC50 values of compounds for reversal of TGF-β suppressed and CD3e/CD28 induced mIFNγ release was determined in mouse splenocytes isolated from Balb/c mice cultured in RPMI, Cat #22400089; 10% FBS, Gibco, ThermoFisher). Mouse splenocytes (2×10^5 cells/well) were activated with Anti-mouse CD3e (2.5 μg/ml, coated overnight at 4° C.; Cat #14-0032-82, eBioscience) and then incubated with serial dilutions of compounds (3 fold, 8 point dose response starting at 3 μM) in the presence of mouse TGF-β (10 ng/ml; Cat #14-8342-80, ebiosciences) for 30 min at 37° C., 5% CO2 in an incubator (cell culture conditions) prior to treating them with Anti-mouse CD28 (0.1 μg/ml soluble; Cat #16-0281-82, eBiosciences). Splenocytes were further incubated under cell culture conditions for 72 hr after which the supernatant was harvested, diluted to 1:50 and ELISA was performed as per the manufacturer's protocol (mIFN-γ kit; Cat #555138 & 550534, BD Biosciences). Plates were read in Biotek plate reader by measuring absorbance at 450 nm.
The reversal of TGF-β suppressed mIFN-γ release by compounds was quantified by first obtaining the amount of mIFN-γ (in pg/ml) released at each concentration of the compound with respect to the mIFN-γ standard. […] The IC50 was calculated by fitting the curve to the “four-parameter variable slope logistic model” using Prism Graph Pad.

22Rv1 = experiment: Cell viability assay (resazurin), 22Rv1; format: cell-based; settings: Homo sapiens, 72-144 hr
Procedure: (§1) Different cell lines such as pancreatic, (MIA PaCa-2; ATCC®CRL-1420™ & and Panc-1; CRL-1469™), liver carcinoma (HepG2; ATCC® HB-8065™), lung epithelial carcinoma (A549; ATCC® CCL-185™) and others were seeded in their respective medium (DMEM, Cat #10569044, MEM, Cat #41090036; RPMI, Cat #22400089; all with 10% FBS, Gibco, ThermoFisher) at a cell count of 3000 cells per 100 μl per well in a 96 well edge plate (167425; ThermoFisher). Cells were allowed to grow at 37° C. for 24 hr in 5% CO2 (culture conditions) in a Nuaire incubator (humidified). Serially diluted compounds (100 μl) were added to the culture plate 24 hr later and the cultures were further incubated in culture conditions for specified time depending on doubling time of specific cell line (ranging from 72-144 hr). Experiment was terminated at the completion of incubation time with the drug by replacing the medium with 100 μl of 1 mM of resazurin (R7017; Sigma) prepared in respective culture medium and the plates were further incubated in culture conditions for 4 hr. Fluorescence was then measured using a multimodal plate reader (Biotek Synergy Neo) at an excitation wavelength of 535 nm and emission wavelength of 590 nm to obtain relative fluorescence units. Data analysis was done by subtracting the background fluorescence (only medium blank) value from each reading and then normalizing with the vehicle control (DMSO treated cells) to obtain percent survival/proliferation. Percent survival at different doses was used to calculate IC50 by fitting the curve to the “four-parameter variable slope logistic model” using Prism Graph Pad.

AsPC-1 = experiment: Cell viability assay (resazurin), AsPC-1; format: cell-based; settings: Homo sapiens, ASPC1, 72-144 hr
Procedure: as §1

| IC50 (ALK 5) [nM] | IC50 [1] [nM] | IC50 (22Rv1) [nM] | IC50 (AsPC-1) [nM] | SMILES |
| --- | --- | --- | --- | --- |
| ≤ 500 | 107 |  |  | CC(C)c1[nH]c(=O)c(-c2cc(Cl)ccc2F)cc1Nc1ccnc2[nH]ccc12 [Compound 1.50, 5-((1H-pyrrolo[2,3-b]pyridin-4-yl)amino)-3-(5-chloro-2-fluorophenyl)-6-isopropylpyridin-2(1H)-one] |
| ≤ 500 | 156 | > 30000 | > 30000 | CC(=O)Nc1cc(Nc2cc(-c3cc(Cl)ccc3F)c(=O)[nH]c2C(C)C)ccn1 [Compound 1.48, N-(4-((5-(5-chloro-2-fluorophenyl)-2-isopropyl-6-oxo-1,6-dihydropyridin-3-yl)amino)pyridin-2-yl)acetamide] |
